Measured values from PMC12612596, “Real‐time FRET assay for monitoring detyrosination by TMCP1 and VASH2” (Protein Science : A Publication of the Protein Society, 2025).
Read-outs that look alike come from different tables or passages of the source. Where a SMILES comes first, the peptide text is derived from it.

Assays:
TMCP1 [1] = target: T1, TMCP1 (Homo sapiens, UniProt Q68EN5); settings: tubulin as substrate; ref Nicot et al., 2023; cited from earlier work
T1 construct: TMCP1 open Reading Frame (ORF) was cloned into pET28A+; 6His (N); made in house; host or cells: Escherichia coli BL21 Star (DE3)
T1 sequence (Q68EN5 1-471): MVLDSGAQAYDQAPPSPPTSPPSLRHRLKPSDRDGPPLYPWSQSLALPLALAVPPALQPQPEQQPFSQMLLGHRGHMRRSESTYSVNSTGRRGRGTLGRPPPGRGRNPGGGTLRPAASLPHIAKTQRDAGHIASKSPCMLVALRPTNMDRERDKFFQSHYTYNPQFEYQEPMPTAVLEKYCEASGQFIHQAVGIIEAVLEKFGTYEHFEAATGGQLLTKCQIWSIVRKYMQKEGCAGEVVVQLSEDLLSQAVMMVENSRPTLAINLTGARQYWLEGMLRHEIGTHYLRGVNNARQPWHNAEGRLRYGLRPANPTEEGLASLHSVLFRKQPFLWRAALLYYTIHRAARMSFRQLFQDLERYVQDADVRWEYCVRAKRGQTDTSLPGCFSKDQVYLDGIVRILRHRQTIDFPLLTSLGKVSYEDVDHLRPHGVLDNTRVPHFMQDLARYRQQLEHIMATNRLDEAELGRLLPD
Experimental: In addition, considering that TMCP1 is a metallocarboxypeptidase, its metal ion dependency was also assessed (Figure 4e). First, the metal ions present in the active site of TMCP1 were chelated with 50 μM EDTA. Subsequently, ZnCl₂, MnCl₂, or CoCl₂ were added at varying concentrations (>50 μM) to determine their impact on the restoration of enzymatic activity.

TMCP1 [2] = target: T1, TMCP1; experiment: TMCP1 FRET enzyme activity assay under altered conditions (inhibitors, salts, metal ions, buffers, competition; substrate FS2); type: biochemical; settings: for Effect of divalent metal ion on TMCP1 activity (in words): TMCP1 pre-treated with 50 μM EDTA 10 min at room temperature, metal ion >50 μM, 30 min at 37 °C, then FS2
Experimental: Protein production and purification steps were previously described (Nicot et al., [2023]). Briefly, TMCP1 open Reading Frame (ORF) was cloned into pET28A+ to produce 6His N‐terminally tagged TMCP1. Transformed Escherichia coli strain BL21 Star (DE3) was grown at 37°C until the optical density (OD600) reached 0.6; then the culture was induced with 0.5 mM isopropyl‐β‐d‐thiogalactoside (IPTG) overnight at 18°C. Cells were pelleted for 15 min at 5000 g and resuspended in a 50 mM Tris–HCl buffer (pH 7.4), 500 mM NaCl, 2 mM TCEP, 0.1% Tween. Cell lysis was performed by sonication followed by centrifugation at 20,000×g for 30 min at 4°C. The supernatant was incubated with pre‐washed Ni‐NTA agarose beads (Qiagen) at 4°C for 2 h. Beads were washed extensively in lysis buffer supplemented with 20 mM imidazole and 0.1% Triton. Elutions were performed in a 50 mM Tris–HCl buffer (pH 7.5), 500 mM NaCl, 250 mM imidazole and 1 mM TCEP. The eluted fractions containing proteins were dialyzed overnight at 4°C against 50 mM Tris–HCl buffer (pH 7.5), 300 mM NaCl, 1 mM TCEP using 10 kDa dialysis cassettes. The dialyzed samples were then concentrated and buffer‐exchanged in a 50 mM Tris–HCl buffer (pH 7.5), 200 mM NaCl, 1 mM TCEP using 10 kDa Amicon centrifugal filter units (Amicon Ultra‐4 Merck Millipore). TMCP1 was then snap frozen and stored at −80°C in aliquots.
For each experiment, a fresh stock solution of the fluorescent peptide substrates (5 mM in DMSO), was prepared and protected from light. […] VASH2/SVPB was used at a final concentration of 235 nM, obtained by diluting a 94 μM stock solution (stored at −80°C) at a 1:400 ratio. Enzymatic kinetics experiments were performed in triplicate by measuring the fluorescence of the FRET peptide substrates cleaved by the two enzymes. The cleavage releases a nitro‐tyrosine residue, which acts as a quencher. Its removal leads to an increase of fluorescence, which was quantified fluorometrically (Ex/Em = 320/420 nm) using a SpectraMax i3x (Molecular Devices) microplate reader.
Data were analyzed using GraphPad Prism, with a dedicated curve fitting applied. A Gaussian bell‐shaped curve was used for the optimal pH study, and dose–response inhibition curves were generated by plotting the concentration of NaCl, EDTA, NS3, etc., against the normalized initial velocity (Vi) corresponding to enzyme activity. Data were normalized so that the curve ranged from 100 to 0% activity.
Optimal pH was established using a 50 mM Tris–HCl buffer, with the pH adjusted to the desired value (ranging 4–11) using 0.1 M NaOH or HCl solutions. For the ionic strength experiments, a 500 mM NaCl stock solution in a 50 mM Tris–HCl buffer was used as a starting point for serial dilution (500–0 mM). For EDTA analysis, a 10 mM stock solution was prepared and fully solubilized by vigorous stirring at 80°C. EDTA (0.004 to 400 μM) was then incubated with TMCP1, for 30 min at 37°C before adding the fluorescent substrate and starting the fluorescence measurement. Subsequently, an identical experiment was conducted using 2‐fold serial dilutions to refine the curve around the previously determined IC50.
For metal ion dependency assays, the enzyme was first incubated with 50 μM of EDTA for 10 min at room temperature. Then, serial dilutions were performed from 100 mM stock solutions of each metal ion (ZnCl₂, CoCl₂, and MnCl₂.).
Finally, the competition assay was performed similarly, except that the 96‐well plate was kept on ice during the serial dilution of the NS3 substrate and its addition into the wells.

VASH1 = test system: VASH1; design: method as in Feral et al., 2025; settings: ref Feral et al., 2025; cited from earlier work
VASH2/SVBP = target: T2, VASH2/SVBP (Homo sapiens, UniProt Q86V25+Q8N300); experiment: VASH2 FRET inhibition assay (substrate FS2); type: biochemical
T2 construct: His (N); T7 (N); made in house; host or cells: Escherichia coli BL21 Star (DE3)
Experimental: Serial dilutions were prepared prior to enzyme addition (235 nM final concentration) to minimize time‐dependent inhibition effects and to avoid premature covalent modification of the enzyme during the dilution steps. […]

VASH1/SVBP = experiment: LC-MS analysis of NS3 cleavage by VASH1/SVBP; type: biochemical
[3] = target: Tubulin MetalloCarboxyPeptidase 1 (TMCP1) (UniProt Q68EN5)

T2 sequence (Q86V25 whole entry, species assumed): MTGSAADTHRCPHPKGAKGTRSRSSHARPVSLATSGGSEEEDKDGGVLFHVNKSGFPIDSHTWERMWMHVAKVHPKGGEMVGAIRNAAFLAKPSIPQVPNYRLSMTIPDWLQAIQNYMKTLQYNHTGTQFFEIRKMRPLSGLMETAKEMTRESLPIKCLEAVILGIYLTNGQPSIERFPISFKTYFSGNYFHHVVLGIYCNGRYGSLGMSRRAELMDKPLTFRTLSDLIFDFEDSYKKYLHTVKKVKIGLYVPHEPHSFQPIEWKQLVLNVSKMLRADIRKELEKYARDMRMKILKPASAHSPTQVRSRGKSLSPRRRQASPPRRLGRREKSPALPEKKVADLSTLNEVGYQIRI
T2 sequence (Q8N300 whole entry partner, species assumed): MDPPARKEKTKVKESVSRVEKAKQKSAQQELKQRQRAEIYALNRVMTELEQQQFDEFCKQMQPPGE

[Cl-].[Cl-].[Co+2] [CoCl₂]
Effect of metal ion on TMCP1 (immunoblot, in words) (TMCP1 [1]): strongly activated
Effect of divalent metal ion on TMCP1 activity (in words) (TMCP1 [2]; n = 3): highly effective not only at restoring but even increasing TMCP1 activity, although its effectiveness was reduced at higher concentrations
Effect of divalent metal ion on TMCP1 activity (in words) (TMCP1 [2]; n = 3, listed as Co^2+): enhance its activity in a concentration‐dependent manner

O=C(O)CN(CCN(CC(=O)O)CC(=O)O)CC(=O)O [EDTA, reference compound]
IC50 (TMCP1 [2]): 2.15 µM

O=C(O)CN(CCOCCOCCN(CC(=O)O)CC(=O)O)CC(=O)O [EGTA, reference compound]
TMCP1 activity with EGTA (in words) (TMCP1 [2]; 1 mM EGTA in Tris-HCl buffer): complete loss of enzymatic activity

CCOC(=O)C1OC1C(=O)N[C@@H](Cc1ccc(O)cc1)C(=O)O (some centres unmarked) [EpoY]
VASH1 inhibition (in words) (VASH1): blocking VASH1
IC50 (VASH2/SVBP): 0.42 µM

[Cl-].[Cl-].[Mg+2] [MgCl₂]
TMCP1 activity with MgCl₂ (in words) (TMCP1 [2]; 80 mM PIPES with or without 1 mM MgCl₂, compared to 50 mM Tris-HCl): enzyme activity comparable to those obtained in 50 mM Tris–HCl

[Cl][Mn][Cl] [MnCl₂]
Effect of metal ion on TMCP1 (immunoblot, in words) (TMCP1 [1]): strongly activated
Effect of divalent metal ion on TMCP1 activity (in words) (TMCP1 [2]; n = 3): also restored the activity but unlike CoCl₂, it did so in a concentration‐dependent manner
Effect of divalent metal ion on TMCP1 activity (in words) (TMCP1 [2]; n = 3, listed as Mn^2+): enhance its activity in a concentration‐dependent manner

CC(=O)N[C@H](C(=O)N[C@@H](CCC(=O)O)C(=O)NCC(=O)N[C@@H](CCC(=O)O)C(=O)NCC(=O)N[C@@H](CCC(=O)O)C(=O)N[C@@H](CCC(=O)O)C(=O)N[C@@H](CCC(=O)O)C(=O)NCC(=O)N[C@@H](CCC(=O)O)C(=O)N[C@@H](CCC(=O)O)C(=O)N[C@@H](Cc1ccc(O)cc1)C(=O)O)C(C)C [NS3] (Ac-VEGEGEEEGEEY-OH)
Affinity relative to fluorescent peptide (in words) (TMCP1 [2]; NS3 vs FS2 (100 μM) in competition assay): slightly higher affinity
IC50 (TMCP1 [2]; read-out: IC50, TMCP1 competition by NS3): ~62 µM
Cleavage of NS3 by VASH1 by LC-MS (in words) (VASH1/SVBP): no activity was detected

[Cl-].[Na+] [NaCl]
Reduction in TMCP1 activity by NaCl (TMCP1 [2]; NaCl around 100 mM in 50 mM Tris-HCl, FS2, n = 3): 50%
Inhibition of TMCP1 by NaCl (in words) (TMCP1 [2]; NaCl concentrations above 200 mM, n = 3): almost complete inhibition

[Cl-].[Cl-].[Zn+2] [ZnCl₂]
Effect of metal ion on TMCP1 (immunoblot, in words) (TMCP1 [1]): inhibited
Effect of divalent metal ion on TMCP1 activity (in words) (TMCP1 [2]; n = 3): did not restore the enzymatic activity
Effect of divalent metal ion on TMCP1 activity (in words) (TMCP1 [2]; n = 3, listed as Zn^2+): inhibits the enzyme

NS3 (natural substrate 3, non-fluorescent peptide of the last 12 amino acids of the α-tubulin C-terminal tail)
IC50 of the competing non-fluorescent peptide NS3 on cleavage of the fluorogenic substrate FS2 (100 μM) by TMCP1, real-time FRET enzymatic assay [3]: 62 µM
